Experimental findings from US8557796B2, “Substituted 1-oxa-2,8-diaza-spiro [4,5] dec-2-ene derivatives and related treatment methods” (Gruenenthal GmbH, priority 2001, dated 2013) are described below.

SMILES strings stand for the structures.

One assay deals with T1, NA transporter (Rattus norvegicus, UniProt Q9WTR4).
T1 construct: synaptosomes from rat brain regions were freshly isolated; from tissue; host or cells: P2 synaptosome fraction from hypothalamus of male rat brain
T1 sequence (Q9WTR4 1-597): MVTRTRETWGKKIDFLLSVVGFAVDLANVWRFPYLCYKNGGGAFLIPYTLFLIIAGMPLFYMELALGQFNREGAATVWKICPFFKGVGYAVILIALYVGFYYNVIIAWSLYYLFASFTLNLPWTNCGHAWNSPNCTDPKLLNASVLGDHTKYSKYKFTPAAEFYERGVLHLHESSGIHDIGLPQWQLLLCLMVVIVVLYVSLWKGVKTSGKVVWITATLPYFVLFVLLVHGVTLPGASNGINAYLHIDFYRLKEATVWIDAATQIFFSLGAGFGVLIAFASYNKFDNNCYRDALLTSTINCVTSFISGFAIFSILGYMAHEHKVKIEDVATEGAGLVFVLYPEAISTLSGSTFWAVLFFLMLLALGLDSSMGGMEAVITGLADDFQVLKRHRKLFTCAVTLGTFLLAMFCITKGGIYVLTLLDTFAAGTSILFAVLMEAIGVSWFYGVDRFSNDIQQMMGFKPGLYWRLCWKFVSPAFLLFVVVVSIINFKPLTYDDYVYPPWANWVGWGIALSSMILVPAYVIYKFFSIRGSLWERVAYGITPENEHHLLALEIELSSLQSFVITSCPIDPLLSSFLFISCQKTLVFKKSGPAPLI
Kind of assay: Noradrenalin uptake inhibition (NA-uptake) in synaptosomes. It counts as biochemical. As to conditions: rat hypothalamus synaptosomes. An excerpt:
Tests on Noradrenalin Uptake Inhibition (NA-Uptake Inhibition)
In order to be able to carry out these in vitro studies, synaptosomes from rat brain regions were freshly isolated.
Usually inhibition stands for the change of the read-out against control, counted positive when it falls. The low end stands for little suppression, the high end for strong suppression. `O=C(C1=NOC2(CCN(S(=O)(=O)c3ccc(F)cc3)CC2)C1)N1CCN(CCCc2ccccc2)CC1` [Example 186, [8-(4-fluoro-benzenesulphonyl)-1-oxa-2,8-diaza-spiro[4,5]dec-2-en-3-yl]-[4-(3-phenyl-propyl)-piperazin-1-yl]-methanone] displayed an inhibition at 10 µM of 63%. Consider `O=C(NC1CCCC1)C1=NOC2(CCN(C(=O)c3ccccc3COC(=O)c3ccccc3)CC2)C1` [Example 188], for which the “NA-uptake, 10 μM, % inhibition” value amounted to 49%. Regarding `CCSc1ncccc1C(=O)N1CCC2(CC1)CC(C(=O)NCc1ccccc1)=NO2` [Example 115, 8-(2-ethylsulphanyl-pyridine-3-carbonyl)-1-oxa-2,8-diaza-spiro[4,5]dec-2-ene-3-carboxylic acid benzylamide], testing at 10 µM gave an inhibition of 55%. Turning to `O=C(NCc1cccc(Cl)c1)C1=NOC2(CCN(S(=O)(=O)c3cccc(C(F)(F)F)c3)CC2)C1` [Example 132, 8-(3-trifluoromethyl-benzenesulphonyl)-1-oxa-2,8-diaza-spiro[4,5]dec-2-ene-3-carboxylic acid 3-chlorobenzylamide], the inhibition at 10 µM came out at 46%.

Consider `CCOC(=O)C1CCCCN1C(=O)C1=NOC2(CCN(C(=O)c3ccc(C(C)(C)C)cc3)CC2)C1` (stereo not drawn) [Example 195, 1-[8-(4-tert-butyl-benzoyl)-1-oxa-2,8-diaza-spiro[4,5]dec-2-ene-3-carbonyl]-piperidine-2-carboxylic acid ethyl ester], for which the inhibition at 10 µM came to 41%. The same measure, in the same setting: next, `O=C(C1=NOC2(CCN(S(=O)(=O)c3ccc(OC(F)(F)F)cc3)CC2)C1)N(CCc1ccccc1)Cc1ccccc1` [Example 97, 8-(4-trifluoromethoxy-benzenesulphonyl)-1-oxa-2,8-diaza-spiro[4,5]dec-2-ene-3-carboxylic acid benzyl-phenethyl-amide]: 83%. Same read-out and setting: to `COc1ccc(C(=O)N2CCC3(CC2)CC(C(=O)NCc2ccccc2)=NO3)cc1` [Example 131, 8-(4-methoxy-benzoyl)-1-oxa-2,8-diaza-spiro[4,5]dec-2-ene-3-carboxylic acid benzylamide] belongs 57%; to `N#CCCN(CCc1ccccn1)C(=O)C1=NOC2(CCN(S(=O)(=O)c3ccc(F)cc3)CC2)C1` [Example 167, 8-(4-fluoro-benzenesulphonyl)-1-oxa-2,8-diaza-spiro[4,5]dec-2-ene-3-carboxylic acid (2-cyano-ethyl)-(2-pyridin-2-yl-ethyl)-amide], 63%. On the same count and under the same terms, next, `COC(=O)c1ccccc1S(=O)(=O)N1CCC2(CC1)CC(C(=O)NCC(C)C)=NO2` [Example 138, 2-(3-isobutylcarbamoyl-1-oxa-2,8-diaza-spiro[4,5]dec-2-ene-8-sulphonyl)-benzoic acid methyl ester]: 49%. Consider `O=C(NCc1cccs1)C1=NOC2(CCN(C(=O)c3ccc(Br)cc3)CC2)C1` [Example 141], for which the “NA-uptake, 10 μM, % inhibition” value stood at 61%. `Cc1oc(C(C)(C)C)cc1C(=O)N1CCC2(CC1)CC(C(=O)NCC(C)C)=NO2` [Example 105, 8-(5-tert-butyl-2-methyl-furan-3-carbonyl)-1-oxa-2,8-diaza-spiro[4,5]dec-2-ene-3-carboxylic acid isobutyl-amide]: the inhibition at 10 µM amounted to 53%.

As to `Cc1ccc(S(=O)(=O)N2CCC3(CC2)CC(C(=O)N(CCc2ccccc2)Cc2ccccc2)=NO3)cc1` [Example 18, 8-(toluene-4-sulphonyl)-1-oxa-2,8-diaza-spiro[4,5]dec-2-ene-3-carboxylic acid benzyl-phenethyl-amide], the inhibition at 10 µM turned out to be 64%.

Take `O=C(NCC1CC1)C1=NOC2(CCN(C(=O)c3ccc(C(F)(F)F)c(F)c3)CC2)C1` [Example 110, 8-(3-fluoro-4-trifluoromethyl-benzoyl)-1-oxa-2,8-diaza-spiro[4,5]dec-2-ene-3-carboxylic acid cyclopropylmethyl-amide]: the inhibition at 10 µM was 45%. Same read-out and setting: next, `CCOC(=O)C1CCCCN1C(=O)C1=NOC2(CCN(C(=O)c3cc(C(C)(C)C)oc3C)CC2)C1` (stereo not drawn) [Example 179, 1-[8-(5-tert-butyl-2-methyl-furan-3-carbonyl)-1-oxa-2,8-diaza-spiro[4,5]dec-2-ene-3-carbonyl]-piperidine-2-carboxylic acid ethyl ester]: 49%. For `O=C(NCCN1CCCC1)C1=NOC2(CCN(S(=O)(=O)c3ccc(F)c(Cl)c3)CC2)C1` [Example 11], the “NA-uptake, 10 μM, % inhibition” value is listed as 41%. `O=C(NCc1ccccc1)C1=NOC2(CCN(S(=O)(=O)c3cccs3)CC2)C1` [Example 136, 8-(thiophene-2-sulphonyl)-1-oxa-2,8-diaza-spiro[4,5]dec-2-ene-3-carboxylic acid benzylamide] returned an inhibition at 10 µM of 53%. Still for that read-out and setting: to `Cc1ccc(S(=O)(=O)N2CCC3(CC2)CC(C(=O)NC2CC2c2ccccc2)=NO3)cc1` (stereo not drawn) [Example 75, 8-(toluene-4-sulphonyl)-1-oxa-2,8-diaza-spiro[4,5]dec-2-ene-3-carboxylic acid (2-phenyl-cyclopropyl)-amide] belongs 65%; to `O=C(NCc1ccccc1)C1=NOC2(CCN(C(=O)c3ccc(F)c(Cl)c3)CC2)C1` [Example 205, 8-(3-chloro-4-fluorobenzoyl)-1-oxa-2,8-diaza-spiro[4,5]dec-2-ene-3-carboxylic acid benzylamide], 46%; to `O=C(NCc1cccs1)C1=NOC2(CCN(C(=O)c3ccc(SC(F)(F)F)cc3)CC2)C1` [Example 135, 8-(4-trifluoromethylsulphanyl-benzoyl)-1-oxa-2,8-diaza-spiro[4,5]dec-2-ene-3-carboxylic acid (thiophen-2-ylmethyl)-amide], 56%. For the compound `CN(C)S(=O)(=O)N1CCC2(CC1)CC(C(=O)NC(Cc1ccccc1)C(=O)OC(C)(C)C)=NO2` (stereo not drawn) [Example 139, 2-[(8-dimethylsulphamoyl-1-oxa-2,8-diaza-spiro[4,5]dec-2-ene-3-carbonyl)-amino]-3-phenyl-propionic acid tert-butyl ester], the inhibition at 10 µM stood at 51%. Regarding `O=C(C1=NOC2(CCN(S(=O)(=O)c3cccc(C(F)(F)F)c3)CC2)C1)N1CCN(c2cc(C(F)(F)F)ccn2)CC1` [Example 119], the “NA-uptake, 10 μM, % inhibition” value was determined as 43%. `CCN(CCNC(=O)C1=NOC2(CCN(S(=O)(=O)N(C)C)CC2)C1)c1cccc(C)c1` [Example 216, 8-dimethylsulphamoyl-1-oxa-2,8-diaza-spiro[4,5]dec-2-ene-3-carboxylic acid [2-(ethyl-m-tolyl-amino)-ethyl]amide] had an inhibition at 10 µM of 40%. As to `O=C(NCc1cccc2ccccc12)C1=NOC2(CCN(S(=O)(=O)c3ccc(Cl)s3)CC2)C1` [Example 128, 8-(5-chloro-thiophene-2-sulphonyl)-1-oxa-2,8-diaza-spiro[4,5]dec-2-ene-3-carboxylic acid naphthalen-l-ylmethyl-amide], the “NA-uptake, 10 μM, % inhibition” value was 45%.

In turn, `O=C(NC1CCCC1)C1=NOC2(CCN(C(=O)c3cccnc3Oc3ccccc3)CC2)C1` [Example 153, 8-(2-phenoxy-pyridine-3-carbonyl)-1-oxa-2,8-diaza-spiro[4,5]dec-2-ene-3-carboxylic acid cyclopentylamide] returned an inhibition at 10 µM of 45%. On the same count and under the same terms, to `Cc1ccc(C(C)NC(=O)C2=NOC3(CCN(S(=O)(=O)c4ccc(C)cc4)CC3)C2)cc1` (stereo not drawn) [Example 45, 8-(toluene-4-sulphonyl)-1-oxa-2,8-diaza-spiro[4,5]dec-2-ene-3-carboxylic acid (1-p-tolyl-ethyl)-amide] belongs 59%; to `O=C(Nc1ccccc1)C1=NOC2(CCN(C(=O)c3cccc(Cl)c3Cl)CC2)C1` [Example 172, 8-(2,3-dichloro-benzoyl)-1-oxa-2,8-diaza-spiro[4,5]dec-2-ene-3-carboxylic acid phenylamide], 41%.

Compound `O=C(C1=NOC2(CCN(S(=O)(=O)c3cc(Cl)ccc3Cl)CC2)C1)N(CCc1ccccc1)Cc1ccccc1` [Example 98, 8-(2,5-dichloro-benzenesulphonyl)-1-oxa-2,8-diaza-spiro[4,5]dec-2-ene-3-carboxylic acid benzyl-phenethyl-amide] showed an inhibition at 10 µM of 82%. `O=C(NCC1CC1)C1=NOC2(CCN(C(=O)c3ccc4ccccc4c3)CC2)C1` [Example 204, 8-(naphthalene-2-carbonyl)-1-oxa-2,8-diaza-spiro[4,5]dec-2-ene-3-carboxylic acid cyclopropylmethyl-amide] came in with an inhibition at 10 µM of 48%. With `O=C(Nc1ccccc1)C1=NOC2(CCN(C(=O)c3ccc(Br)cc3)CC2)C1` [Example 181, 8-(4-bromo-benzoyl)-1-oxa-2,8-diaza-spiro[4,5]dec-2-ene-3-acarboxylic cid phenylamide], the “NA-uptake, 10 μM, % inhibition” value turned out to be 51%. As for `O=C(NCc1cccs1)C1=NOC2(CCN(C(=O)c3cccc4ccccc34)CC2)C1` [Example 192, 8-(naphthalene-1-carbonyl)-1-oxa-2,8-diaza-spiro[4,5]dec-2-ene-3-carboxylic acid (thiophen-2-ylmethyl)-amide], the inhibition at 10 µM is 41%.

As for `O=C(NC1CCCC1OCc1ccccc1)C1=NOC2(CCN(S(=O)(=O)c3cccs3)CC2)C1` (stereo not drawn) [Example 47, 8-(thiophene-2-sulphonyl)-1-oxa-2,8-diaza-spiro[4,5]dec-2-ene-3-carboxylic acid (2-benzyloxy-cyclopentyl)-amide], the inhibition at 10 µM worked out at 92%. On to `COc1ccc(Br)cc1S(=O)(=O)N1CCC2(CC1)CC(C(=O)NC1CCCC1)=NO2` [Example 173, 8-(5-bromo-2-methoxy-benzenesulphonyl)-1-oxa-2,8-diaza-spiro[4,5]dec-2-ene-3-carboxylic acid cyclopentylamide], for which 10 µM produced 60% inhibition.

The assay is the same for the next values; noted with them: rat hypothalamus synaptosomes, 10 µM.
With `COc1ccc(S(=O)(=O)N2CCC3(CC2)CC(C(=O)NC2CCCC2OCc2ccccc2)=NO3)cc1` (stereo not drawn) [Example 121, 8-(4-methoxy-benzenesulphonyl)-1-oxa-2,8-diaza-spiro[4,5]dec-2-ene-3-carboxylic acid (2-benzyloxy-cyclopentyl)-amide], the “NA-uptake, 10 μM, % inhibition” value is on record as 55%.
